US8329716B2, “Hetaryloxy-substituted phenylamino pyrimidines as Rho kinase inhibitors” (Bayer Intellectual Property GmbH, priority 2004, dated 2012)

test system: isolated saphenous artery of rabbits; experiment: Vessel-relaxing action in vitro, phenylephrine-induced contractions of isolated saphenous artery rings; settings: Oryctolagus cuniculus; concentration reducing phenylephrine-induced contraction of rabbit saphenous artery rings by 50% of control
Protocol: The inhibition of the enzyme is investigated in an in vitro assay with recombinant Rho kinase II. The vessel-relaxing action is determined using phenylephrine-induced contractions of isolated rings of the saphenous artery of rabbits.
Vessel-Relaxing Action In Vitro
Individual 3-mm-wide rings of the isolated saphenous artery of rabbits are introduced into 5 ml organ baths with Krebs-Henseleit solution (37° C., gassed with carbogen). The vessel tone is monitored isometrically and registered. Contractions are induced by addition of […] of phenylephrine/ml, which is washed out again after 4 min. After a number of control cycles, the rings are preincubated with the substance to be examined, with the dosage being increased for each further cycle, and the subsequent contraction is compared to the intensity of the last control contraction.

Going from `Nc1nc(Nc2ccc(Oc3ccnc4[nH]cc(Cl)c34)c(F)c2)cc(C(F)(F)F)n1` [Example 9, N^4-{4-[(3-Chloro-1H-pyrrolo[2,3-b]pyridin-4-yl)oxy]-3-fluorophenyl}-6-(trifluoromethyl)pyrimidine-2,4-diamine] to `N#Cc1c[nH]c2nccc(Oc3ccc(Nc4cc(C(F)(F)F)nc(N)n4)cc3F)c12` [Example 18, 4-(4-{[2-Amino-6-(trifluoromethyl)pyrimidin-4-yl]amino}-2-fluorophenoxy)-1H-pyrrolo[2,3-b]pyridin-3-carbonitrile], the IC50 falls from 45 nM to 19 nM (2.4-fold).

`Cc1c[nH]c2nccc(Oc3c(F)cc(Nc4cc(Cl)nc(N)n4)cc3F)c12` [Example 1, 6-Chloro-N^4-{3,5-difluoro-4-[(3-methyl-1H-pyrrolo[2,3-b]pyridin-4-yl)oxy]phenyl}pyrimidine-2,4-diamine] was tested, and the IC50 was 67 nM.
